Measured values as given in patent US10800791B2, “Triazole ACC inhibitors and uses thereof” (Gilead Apollo, LLC, priority 2015, dated 2020).
Converted amounts (≈) assume the structure as drawn. Read-outs that look alike come from different tables or passages of the source.

What was measured:
[1] = tested on: Fusarium moniliforme (Fm); assay: Growth inhibition assay of fungal pathogens, Fm; assay type: cell-based; conditions: for IC90: Fusarium verticillioides, 48 h, read-out: Concentration at 90% Inhibition Fm
In short: (§1)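 Inhibition percentages reflect 48 h OD600 and visual scores relative to a 2% DMSO control. Test concentrations were 50, 10, 2 ppm or 2, 0.4, 0.08 ppm final, applied to spores in 17% V8 medium.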

[2] = tested on: Fusarium virguliforme (Fv); assay: Growth inhibition assay of fungal pathogens, Fv; assay type: cell-based; conditions: 48 h
In short: as §1

[3] = target: human (hACC2) (Homo sapiens, UniProt O00763); assay: In vitro ACC inhibition assay (ADP-Glo), hACC2; assay type: biochemical; conditions: 5 nM ACC2, 20 μM ATP, 20 μM acetyl-CoA
Experimental: The detailed procedure is as follows. […] 10 μL ADP glo reagent was added. […] 20 μL kinase detection reagent was added.

[4] = tested on: C. albicans; assay: Antifungal Activity Assay (broth microtiter MIC), C. albicans; assay type: cell-based, Candida albicans; conditions: Candida albicans, ATCC90028, 48 h
In short: (§2)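 MIC read by eye at 48 h, comparing challenged wells with the growth control. Yeasts grown overnight on Sabouraud dextrose agar at 35° C, suspended in RPMI 1640+MOPS and added at 2.5×10^3 CFU/mL final, following CLSI M27-A3.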

[5] = tested on: Rhizoctonia solani (Rs); assay: Growth inhibition assay of fungal pathogens, Rs; assay type: cell-based; conditions: 48 h
[6] = target: fungal (fACC2) (UniProt Q00955); conditions: read-out: fACC2 (in vitro ACC2 Inhibition Assay, IC50), ADP-Glo, 5 nM ACC2, 20 μM ATP, 20 μM acetyl-CoA
[7] = tested on: Botrtyis cinerea (Bc); assay: Growth inhibition assay of fungal pathogens, Bc; assay type: cell-based; conditions: 48 h
In short: as §1

[8] = tested on: C. parapsilosis; assay: Antifungal Activity Assay (broth microtiter MIC), C. parapsilosis; assay type: cell-based, Candida parapsilosis; conditions: Lodderomyces parapsilosis, ATCC22019, 48 h
In short: as §2

[9] = tested on: Septoria tritici (St); assay: Growth inhibition assay of fungal pathogens, St; assay type: cell-based; conditions: Zymoseptoria tritici, 48 h
In short: as §1

[10] = tested on: Diplodia maydis (Dm); assay: Growth inhibition assay of fungal pathogens, Dm; assay type: cell-based; conditions: Stenocarpella maydis, 48 h
In short: as §1

[11] = Fusarium moniliforme, growth inhibition at 48 hours vs 2% DMSO control
[12] = Fusarium moniliforme, growth inhibition vs 2% DMSO control at 48 hours
[13] = growth inhibition at 48 hours vs 2% DMSO control, read-out: Concentration at 90% Inhibition Fv
[14] = growth inhibition vs 2% DMSO control at 48 hours, read-out: Concentration at 90% Inhibition Fv
[15] = Table 3a, ATCC 90028, 3 replicates, MIC recorded at 48 h, read-out: MIC, C. albicans ATCC 90028
[16] = Table 3b (additional results), ATCC 90028, 3 replicates, MIC recorded at 48 h, read-out: MIC, C. albicans ATCC 90028
[17] = mycelial plugs, growth inhibition at 48 hours vs 2% DMSO control, read-out: Concentration at 90% Inhibition Rs
[18] = mycelial plugs, growth inhibition vs 2% DMSO control at 48 hours, read-out: Concentration at 90% Inhibition Rs
[19] = Botrtyis cinerea, growth inhibition at 48 hours vs 2% DMSO control, read-out: Concentration at 90% Inhibition Bc
[20] = Botrtyis cinerea, growth inhibition vs 2% DMSO control at 48 hours, read-out: Concentration at 90% Inhibition Bc
[21] = Table 3a, ATCC 22019, 3 replicates, MIC recorded at 48 h, read-out: MIC, C. parapsilosis ATCC 22019
[22] = Table 3b (additional results), ATCC 22019, 3 replicates, MIC recorded at 48 h, read-out: MIC, C. parapsilosis ATCC 22019
[23] = Septoria tritici, growth inhibition at 48 hours vs 2% DMSO control, read-out: Concentration at 90% Inhibition St
[24] = Septoria tritici, growth inhibition vs 2% DMSO control at 48 hours, read-out: Concentration at 90% Inhibition St
[25] = Diplodia maydis, growth inhibition at 48 hours vs 2% DMSO control, read-out: Concentration at 90% Inhibition Dm
[26] = Diplodia maydis, growth inhibition vs 2% DMSO control at 48 hours, read-out: Concentration at 90% Inhibition Dm

Chain of fungal (fACC2) (Q00955 whole entry): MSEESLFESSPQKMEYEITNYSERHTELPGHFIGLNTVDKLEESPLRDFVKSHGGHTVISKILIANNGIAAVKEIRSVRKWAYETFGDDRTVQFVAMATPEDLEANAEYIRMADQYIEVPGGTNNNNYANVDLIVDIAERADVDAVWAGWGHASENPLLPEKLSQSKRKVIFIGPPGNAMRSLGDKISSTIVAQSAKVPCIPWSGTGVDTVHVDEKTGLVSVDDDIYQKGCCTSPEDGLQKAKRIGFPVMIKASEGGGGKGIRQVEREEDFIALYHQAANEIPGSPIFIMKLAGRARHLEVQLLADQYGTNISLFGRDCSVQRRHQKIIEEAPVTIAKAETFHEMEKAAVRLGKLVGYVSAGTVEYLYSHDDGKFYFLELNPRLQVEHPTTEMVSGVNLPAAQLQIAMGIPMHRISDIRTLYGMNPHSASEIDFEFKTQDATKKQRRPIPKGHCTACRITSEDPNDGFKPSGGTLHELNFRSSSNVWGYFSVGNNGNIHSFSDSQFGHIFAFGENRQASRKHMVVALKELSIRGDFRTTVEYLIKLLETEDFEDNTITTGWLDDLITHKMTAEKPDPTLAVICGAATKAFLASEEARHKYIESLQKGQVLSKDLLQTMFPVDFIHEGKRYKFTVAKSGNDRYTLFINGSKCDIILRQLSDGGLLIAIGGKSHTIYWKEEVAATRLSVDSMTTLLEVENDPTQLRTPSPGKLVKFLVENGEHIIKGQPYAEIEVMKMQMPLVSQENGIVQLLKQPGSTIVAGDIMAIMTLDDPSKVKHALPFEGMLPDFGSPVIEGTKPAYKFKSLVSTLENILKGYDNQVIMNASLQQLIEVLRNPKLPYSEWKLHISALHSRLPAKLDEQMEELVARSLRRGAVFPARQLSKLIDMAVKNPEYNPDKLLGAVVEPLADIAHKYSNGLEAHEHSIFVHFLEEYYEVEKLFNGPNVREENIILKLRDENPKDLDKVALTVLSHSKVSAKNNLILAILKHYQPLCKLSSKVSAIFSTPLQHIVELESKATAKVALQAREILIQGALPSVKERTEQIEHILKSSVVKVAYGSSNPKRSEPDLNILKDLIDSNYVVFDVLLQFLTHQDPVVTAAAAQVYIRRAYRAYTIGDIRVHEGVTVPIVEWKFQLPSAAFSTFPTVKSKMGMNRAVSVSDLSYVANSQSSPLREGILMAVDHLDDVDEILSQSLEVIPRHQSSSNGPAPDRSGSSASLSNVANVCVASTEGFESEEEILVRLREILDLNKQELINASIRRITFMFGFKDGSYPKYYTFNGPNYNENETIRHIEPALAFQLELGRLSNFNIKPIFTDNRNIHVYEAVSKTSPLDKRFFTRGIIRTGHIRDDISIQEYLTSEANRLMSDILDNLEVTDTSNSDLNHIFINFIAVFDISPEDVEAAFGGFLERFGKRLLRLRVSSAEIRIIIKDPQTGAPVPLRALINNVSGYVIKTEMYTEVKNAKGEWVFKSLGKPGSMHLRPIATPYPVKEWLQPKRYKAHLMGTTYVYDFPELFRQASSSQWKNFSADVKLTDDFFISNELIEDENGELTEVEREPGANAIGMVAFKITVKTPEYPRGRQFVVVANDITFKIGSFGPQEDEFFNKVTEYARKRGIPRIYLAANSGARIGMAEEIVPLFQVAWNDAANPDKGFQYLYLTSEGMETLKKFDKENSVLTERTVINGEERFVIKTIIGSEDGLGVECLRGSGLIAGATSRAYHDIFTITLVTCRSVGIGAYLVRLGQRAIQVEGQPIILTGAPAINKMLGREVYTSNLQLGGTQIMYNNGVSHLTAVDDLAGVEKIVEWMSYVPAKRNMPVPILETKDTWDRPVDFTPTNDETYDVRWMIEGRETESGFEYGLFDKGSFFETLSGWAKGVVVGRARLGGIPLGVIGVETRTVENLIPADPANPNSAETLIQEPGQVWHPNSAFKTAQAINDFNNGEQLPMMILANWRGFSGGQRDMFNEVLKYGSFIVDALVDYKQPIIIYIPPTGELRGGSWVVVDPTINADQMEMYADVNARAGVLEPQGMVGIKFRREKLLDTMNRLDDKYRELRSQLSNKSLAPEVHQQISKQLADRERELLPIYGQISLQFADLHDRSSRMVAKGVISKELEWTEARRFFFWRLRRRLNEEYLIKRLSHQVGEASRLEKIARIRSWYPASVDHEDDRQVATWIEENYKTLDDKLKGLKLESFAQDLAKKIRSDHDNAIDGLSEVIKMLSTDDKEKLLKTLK
Chain of human (hACC2) (O00763 whole entry): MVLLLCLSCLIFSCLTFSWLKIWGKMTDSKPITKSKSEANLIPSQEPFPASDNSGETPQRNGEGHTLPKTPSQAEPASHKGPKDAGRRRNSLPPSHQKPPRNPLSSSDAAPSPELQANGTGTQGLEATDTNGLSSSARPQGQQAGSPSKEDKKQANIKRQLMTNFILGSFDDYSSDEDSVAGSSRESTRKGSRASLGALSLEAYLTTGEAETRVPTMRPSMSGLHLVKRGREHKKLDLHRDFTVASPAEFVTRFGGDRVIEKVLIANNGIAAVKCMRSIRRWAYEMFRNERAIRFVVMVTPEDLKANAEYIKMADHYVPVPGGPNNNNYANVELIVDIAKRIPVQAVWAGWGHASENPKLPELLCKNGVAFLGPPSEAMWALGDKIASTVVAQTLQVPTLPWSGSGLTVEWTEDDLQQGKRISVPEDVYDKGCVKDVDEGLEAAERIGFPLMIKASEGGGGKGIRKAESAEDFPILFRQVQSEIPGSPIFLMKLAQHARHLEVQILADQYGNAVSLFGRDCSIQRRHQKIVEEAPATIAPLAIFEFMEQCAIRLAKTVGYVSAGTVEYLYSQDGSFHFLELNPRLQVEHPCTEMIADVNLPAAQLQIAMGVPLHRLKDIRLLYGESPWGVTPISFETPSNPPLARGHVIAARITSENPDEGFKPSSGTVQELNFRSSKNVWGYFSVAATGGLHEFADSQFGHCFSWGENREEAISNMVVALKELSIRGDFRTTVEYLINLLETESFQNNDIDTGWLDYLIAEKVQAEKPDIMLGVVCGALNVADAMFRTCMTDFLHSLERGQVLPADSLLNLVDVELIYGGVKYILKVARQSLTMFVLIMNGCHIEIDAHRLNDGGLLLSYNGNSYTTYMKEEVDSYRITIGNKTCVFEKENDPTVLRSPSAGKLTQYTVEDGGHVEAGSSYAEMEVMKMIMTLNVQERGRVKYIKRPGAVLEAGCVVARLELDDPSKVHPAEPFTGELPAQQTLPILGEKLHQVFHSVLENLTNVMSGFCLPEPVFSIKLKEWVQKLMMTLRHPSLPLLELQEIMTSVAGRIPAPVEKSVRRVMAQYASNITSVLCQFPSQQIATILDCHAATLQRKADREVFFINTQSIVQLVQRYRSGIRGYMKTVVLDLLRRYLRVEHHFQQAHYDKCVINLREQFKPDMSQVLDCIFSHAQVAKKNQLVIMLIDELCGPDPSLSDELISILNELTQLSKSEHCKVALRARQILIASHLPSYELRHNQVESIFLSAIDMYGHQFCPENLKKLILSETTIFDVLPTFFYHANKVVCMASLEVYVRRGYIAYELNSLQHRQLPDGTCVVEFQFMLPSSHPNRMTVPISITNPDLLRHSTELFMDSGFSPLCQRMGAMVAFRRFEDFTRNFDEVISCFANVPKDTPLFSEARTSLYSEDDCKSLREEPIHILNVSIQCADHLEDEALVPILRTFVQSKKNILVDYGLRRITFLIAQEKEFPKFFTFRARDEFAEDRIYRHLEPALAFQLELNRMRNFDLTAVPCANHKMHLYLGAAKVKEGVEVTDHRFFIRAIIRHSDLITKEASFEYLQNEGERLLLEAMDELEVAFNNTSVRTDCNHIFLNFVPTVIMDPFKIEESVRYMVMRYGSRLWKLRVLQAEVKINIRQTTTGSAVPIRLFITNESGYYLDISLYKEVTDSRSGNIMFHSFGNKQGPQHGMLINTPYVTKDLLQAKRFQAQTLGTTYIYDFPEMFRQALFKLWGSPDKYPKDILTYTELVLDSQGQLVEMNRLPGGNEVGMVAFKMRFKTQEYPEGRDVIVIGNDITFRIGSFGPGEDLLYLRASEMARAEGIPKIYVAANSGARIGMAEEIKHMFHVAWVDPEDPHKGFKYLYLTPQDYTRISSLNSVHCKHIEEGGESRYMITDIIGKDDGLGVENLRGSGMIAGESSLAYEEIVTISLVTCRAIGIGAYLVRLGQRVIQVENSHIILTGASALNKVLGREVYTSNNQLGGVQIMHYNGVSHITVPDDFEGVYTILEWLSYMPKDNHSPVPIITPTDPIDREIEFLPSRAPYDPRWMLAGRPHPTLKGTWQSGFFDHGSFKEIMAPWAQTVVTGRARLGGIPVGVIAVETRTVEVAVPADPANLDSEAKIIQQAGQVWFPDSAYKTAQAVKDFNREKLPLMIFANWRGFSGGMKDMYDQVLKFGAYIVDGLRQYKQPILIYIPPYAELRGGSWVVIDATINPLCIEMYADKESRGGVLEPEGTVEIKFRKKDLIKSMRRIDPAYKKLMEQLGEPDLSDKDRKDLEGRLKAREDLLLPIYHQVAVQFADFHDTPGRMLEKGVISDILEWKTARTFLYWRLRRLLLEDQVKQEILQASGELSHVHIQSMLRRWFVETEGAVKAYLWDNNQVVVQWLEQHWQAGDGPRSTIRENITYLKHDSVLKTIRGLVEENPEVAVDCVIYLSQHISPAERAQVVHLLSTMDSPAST

COc1ccc(F)cc1[C@H](Cn1c(=O)n(C(C)(C)C(=O)NC(C)C)c(=O)c2c(C)c(-n3nccn3)sc21)OC(C)C [Compound I-4, (R)-2-(1-(2-(5-fluoro-2-methoxyphenyl)-2-isopropoxyethyl)-5-methyl-2,4-dioxo-6-(2H-1,2,3-triazol-2-yl)-1,4-dihydrothieno[2,3-d]pyrimidin-3(2H)-yl)-N-isopropyl-2-methylpropanamide]
Concentration at 90% Inhibition Fm [1, 11]: AA (compound concentration of 0.08 ppm at 90% inhibition of fungal pathogens) | IC90 [1]: 0.08 µg/mL (≈ 0.136 µM) | IC90 ([2]; read-out: Concentration at 90% Inhibition Fv, Fusarium virguliforme, growth inhibition at 48 hours vs 2% DMSO control): 0.4 µg/mL (≈ 0.682 µM) | IC90 ([2]; read-out: Concentration at 90% Inhibition Fv, Fusarium virguliforme, growth inhibition vs 2% DMSO control at 48 hours): 0.4 µg/mL (≈ 0.682 µM) | IC50 ([3]; Table 2a): 5 to 10 nM | IC50 ([3]; Table 2b, additional results): 5 to 10 nM | MIC ([4]; read-out: MIC, C. albicans ATCC 90028, Table 3a, 3 replicates, MIC recorded at 48 h): 0.25 to 1 µg/mL (≈ 0.426 to 1.7 µM) | MIC ([4]; read-out: MIC, C. albicans ATCC 90028, Table 3b (additional results), 3 replicates, MIC recorded at 48 h): 0.25 to 1 µg/mL (≈ 0.426 to 1.7 µM) | IC90 ([5]; read-out: Concentration at 90% Inhibition Rs, Rhizoctonia solani, mycelial plugs, growth inhibition at 48 hours vs 2% DMSO control): 0.08 µg/mL (≈ 0.136 µM) | IC90 ([5]; read-out: Concentration at 90% Inhibition Rs, Rhizoctonia solani, mycelial plugs, growth inhibition vs 2% DMSO control at 48 hours): 0.08 µg/mL (≈ 0.136 µM) | IC50 ([6]; Table 2a): 1 to 5 nM | IC50 ([6]; Table 2b, additional results): 1 to 5 nM | IC90 ([7]; read-out: Concentration at 90% Inhibition Bc, Botrtyis cinerea, growth inhibition at 48 hours vs 2% DMSO control): 0.08 µg/mL (≈ 0.136 µM) | IC90 ([7]; read-out: Concentration at 90% Inhibition Bc, Botrtyis cinerea, growth inhibition vs 2% DMSO control at 48 hours): 0.08 µg/mL (≈ 0.136 µM) | MIC ([8]; read-out: MIC, C. parapsilosis ATCC 22019, Table 3a, 3 replicates, MIC recorded at 48 h): 0.25 to 1 µg/mL (≈ 0.426 to 1.7 µM) | MIC ([8]; read-out: MIC, C. parapsilosis ATCC 22019, Table 3b (additional results), 3 replicates, MIC recorded at 48 h): 1.01 to 2 µg/mL (≈ 1.72 to 3.41 µM) | IC90 ([9]; read-out: Concentration at 90% Inhibition St, Septoria tritici, growth inhibition at 48 hours vs 2% DMSO control): 2 µg/mL (≈ 3.41 µM) | IC90 ([9]; read-out: Concentration at 90% Inhibition St, Septoria tritici, growth inhibition vs 2% DMSO control at 48 hours): 10 µg/mL (≈ 17 µM) | IC90 ([10]; read-out: Concentration at 90% Inhibition Dm, Diplodia maydis, growth inhibition at 48 hours vs 2% DMSO control): 0.08 µg/mL (≈ 0.136 µM) | IC90 ([10]; read-out: Concentration at 90% Inhibition Dm, Diplodia maydis, growth inhibition vs 2% DMSO control at 48 hours): 0.08 µg/mL (≈ 0.136 µM)

COc1ccc(F)cc1[C@H](Cn1c(=O)n(C(C)(C)C(=O)N2CCCC2)c(=O)c2c(C)c(-n3nccn3)sc21)OC(C)C [Compound I-7, (R)-1-(2-(5-fluoro-2-methoxyphenyl)-2-isopropoxyethyl)-5-methyl-3-(2-methyl-1-oxo-1-(pyrrolidin-1-yl)propan-2-yl)-6-(2H-1,2,3-triazol-2-yl)thieno[2,3-d]pyrimidine-2,4(1H,3H)-dione]
IC90 [1, 11]: 0.08 µg/mL (≈ 0.134 µM) | IC90 [1, 12]: 0.08 µg/mL (≈ 0.134 µM) | IC90 [2, 13]: 0.08 µg/mL (≈ 0.134 µM) | IC90 [2, 14]: 0.08 µg/mL (≈ 0.134 µM) | IC50 ([3]; Table 2a): 5 to 10 nM | IC50 ([3]; Table 2b, additional results): 5 to 10 nM | MIC [4, 15]: 1.1 to 2 µg/mL (≈ 1.84 to 3.34 µM) | MIC [4, 16]: 0.25 to 1 µg/mL (≈ 0.418 to 1.67 µM) | IC90 [5, 17]: 0.08 µg/mL (≈ 0.134 µM) | IC90 [5, 18]: 0.08 µg/mL (≈ 0.134 µM) | IC50 ([6]; Table 2a): 1 to 5 nM | IC50 ([6]; Table 2b, additional results): 1 to 5 nM | IC90 [7, 19]: 0.4 µg/mL (≈ 0.668 µM) | IC90 [7, 20]: 0.4 µg/mL (≈ 0.668 µM) | MIC [8, 21]: 1.1 to 2 µg/mL (≈ 1.84 to 3.34 µM) | MIC [8, 22]: 1.01 to 2 µg/mL (≈ 1.69 to 3.34 µM) | IC90 [9, 23]: 10 µg/mL (≈ 16.7 µM) | IC90 [9, 24]: > 50 µg/mL | IC90 [10, 25]: 0.08 µg/mL (≈ 0.134 µM) | IC90 [10, 26]: 0.08 µg/mL (≈ 0.134 µM)

COc1ccc(F)cc1[C@H](Cn1c(=O)n(C(C)(C)C(=O)NC2CCC2)c(=O)c2c(C)c(-n3nccn3)sc21)OC1CCOCC1 [Compound I-27, (R)—N-cyclobutyl-2-(1-(2-(5-fluoro-2-methoxyphenyl)-2-((tetrahydro-2H-pyran-4-yl)oxy)ethyl)-5-methyl-2,4-dioxo-6-(2H-1,2,3-triazol-2-yl)-1,4-dihydrothieno[2,3-d]pyrimidin-3(2H)-yl)-2-methylpropanamide]
IC90 [1, 11]: 0.08 µg/mL (≈ 0.125 µM) | IC90 [1, 12]: 0.08 µg/mL (≈ 0.125 µM) | IC90 [2, 13]: 0.4 µg/mL (≈ 0.624 µM) | IC90 [2, 14]: 0.4 µg/mL (≈ 0.624 µM) | IC50 ([3]; Table 2a): 5 to 10 nM | IC50 ([3]; Table 2b, additional results): 5 to 10 nM | MIC [4, 15]: 0.25 to 1 µg/mL (≈ 0.39 to 1.56 µM) | MIC [4, 16]: 0.25 to 1 µg/mL (≈ 0.39 to 1.56 µM) | IC90 [5, 17]: 0.08 µg/mL (≈ 0.125 µM) | IC90 [5, 18]: 0.08 µg/mL (≈ 0.125 µM) | IC50 ([6]; Table 2a): 1 to 5 nM | IC50 ([6]; Table 2b, additional results): 1 to 5 nM | IC90 [7, 19]: 0.4 µg/mL (≈ 0.624 µM) | IC90 [7, 20]: 0.4 µg/mL (≈ 0.624 µM) | MIC [8, 21]: 0.25 to 1 µg/mL (≈ 0.39 to 1.56 µM) | MIC [8, 22]: 0.25 to 1 µg/mL (≈ 0.39 to 1.56 µM) | IC90 [9, 23]: 2 µg/mL (≈ 3.12 µM) | IC90 [9, 24]: 10 µg/mL (≈ 15.6 µM) | IC90 [10, 25]: 0.4 µg/mL (≈ 0.624 µM) | IC90 [10, 26]: 0.4 µg/mL (≈ 0.624 µM)
